The target of test [1] is T1, GRK2 (Homo sapiens, UniProt P25098).
T1 construct: purchased SignalChem A14-10G
T1 sequence (P25098 1-689): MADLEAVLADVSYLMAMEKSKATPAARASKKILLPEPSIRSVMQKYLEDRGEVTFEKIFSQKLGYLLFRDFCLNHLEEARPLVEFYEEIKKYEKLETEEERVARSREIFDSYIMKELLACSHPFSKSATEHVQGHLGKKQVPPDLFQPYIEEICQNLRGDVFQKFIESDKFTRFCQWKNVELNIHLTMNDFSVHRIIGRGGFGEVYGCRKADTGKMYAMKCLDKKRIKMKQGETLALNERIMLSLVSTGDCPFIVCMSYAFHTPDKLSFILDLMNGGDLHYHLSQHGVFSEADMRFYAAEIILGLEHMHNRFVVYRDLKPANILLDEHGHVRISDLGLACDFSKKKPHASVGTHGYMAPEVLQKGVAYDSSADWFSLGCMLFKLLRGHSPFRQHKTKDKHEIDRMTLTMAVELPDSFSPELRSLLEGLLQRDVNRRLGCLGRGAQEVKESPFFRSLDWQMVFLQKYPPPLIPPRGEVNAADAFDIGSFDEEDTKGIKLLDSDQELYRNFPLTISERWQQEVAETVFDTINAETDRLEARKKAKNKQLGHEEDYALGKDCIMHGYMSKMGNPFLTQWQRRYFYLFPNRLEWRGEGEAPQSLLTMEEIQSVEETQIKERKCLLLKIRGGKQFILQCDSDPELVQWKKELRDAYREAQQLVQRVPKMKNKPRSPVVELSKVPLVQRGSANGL
Nature of the test: ADPGlo GRK2 Inhibition Assay (Example 8). The class given is biochemical. To be noted: ADPGlo GRK2 enzyme assay; read-out: A: Enzymatic GRK2: IC50 (nM) (Example 8). Put shortly:
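GRK2 (15 nM 2× enzyme solution) was preincubated 15 min with compound, then reacted 180 min at room temperature with 2× mix of 20 μM ATP plus GRKtide in HEPES pH 7.5, MgCl2, Tween-20, DTT. ADP was detected by ADP-Glo luminescence. Percent inhibition was normalised to enzyme and no-enzyme controls, with dose-response curves from threefold dilutions starting at 100 μM.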

In test [2] the test system is PAXF1657 control empty vector cell line. Nature of the test: 7-day proliferation assay, PAXF1657 control empty vector cell line (Example 9). The class given is cell-based. To be noted: 168 h; Cell Line: PAXF1657 empty vector (EV) cell line; 7-day; read-out: C: 7-day proliferation assay: IC50 GeoMean. Put shortly: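 PAXF1657 pancreatic cancer cells (GRK2-overexpressing vs empty vector; CRISPR GRK2 knockout vs non-targeting control) were seeded at 500 cells/well in RPMI1640/10% FBS, then given a 10-point series, 30 μM-0.0002 μM in 0.3% DMSO. Medium and compound were refreshed after 3 days; CellTiter-Glo luminescence was read at day 7.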

The text below walks through data of patent US20230009608A1, “GRK2 INHIBITORS AND USES THEREOF” (Cygnal Therapeutics, Inc., priority 2020, published 2023).

Molecules are shown by their SMILES.

Consider `Cn1c(CNc2cccc(C(=O)NCc3cccc4c3NC(=O)CO4)c2)nnc1-c1ccncn1`, for which the IC50 in test [1] stood at 9.78 nM; in test [2], 2990 nM.

Consider `Cn1c(CNc2cccc(C(=O)NC3CCS(=O)(=O)c4ccc(F)cc43)c2)nnc1-c1ccncn1` (stereo not shown), for which the IC50 worked out at 65.4 nM in test [1] and 8680 nM in test [2].

For `COc1ncc(Br)cc1CNC(=O)c1cccc(NCc2nnc(-c3ccncn3)n2C)c1`, the IC50 in test [1] is 21.5 nM; in test [2], 610 nM.

Consider `Cc1cc(C)n(C)c(=O)c1CNC(=O)c1cccc(NCc2nnc(-c3ccncn3)n2C)c1`, for which the IC50 worked out at 9.97 nM in test [1] and 1700 nM in test [2].

As for `Cn1c(CNc2cccc(C(=O)NCc3ccccc3S(=O)(=O)N3CCCC3)c2)nnc1-c1ccncn1`, the IC50 in test [1] came out at 26.9 nM; in test [2], 2170 nM.

As to `Cn1c(CNc2cccc(C(=O)NCc3cccnc3Cl)c2)nnc1-c1ccncn1`, the IC50 in test [1] was 27.6 nM; in test [2], 506 nM.

Consider `Cc1cc(C)c(CNC(=O)c2cccc(NCc3nnc(-c4ccncn4)n3C)c2)cn1`, for which the IC50 turned out to be 17.8 nM in test [1] and 803 nM in test [2].

Regarding `CC(NC(=O)c1cccc(NCc2nnc(-c3ccncn3)n2C)c1)c1ncccc1F` (stereo not shown), the IC50 in test [1] was found to be 69 nM; in test [2], 2660 nM.

As for `C#Cc1ccccc1CNC(=O)c1cccc(NCc2nnc(-c3ccncn3)n2C)c1`, the IC50 in test [1] is 46.4 nM; in test [2], 2320 nM.

With `Cc1nccnc1C(C)NC(=O)c1cccc(NCc2nnc(-c3ccncn3)n2C)c1` (stereo not shown), the IC50 in test [1] was 61 nM; in test [2] it was greater than 12500 nM.

Turning to `Cc1nncc(CNC(=O)c2cccc(NCc3nnc(-c4ccncn4)n3C)c2)c1C`, the IC50 in test [1] stood at 14.3 nM; in test [2] it was 1460 nM.

Take `Cn1c(CNc2cccc(C(=O)NCc3cc(C#N)ccc3F)c2)nnc1-c1ccncn1`: the IC50 in test [1] is 17.6 nM; in test [2] it was greater than 1280 nM.

`Cn1c(CNc2cccc(C(=O)NC3COc4ccc(F)cc43)c2)nnc1-c1ccncn1` (stereo not shown): the IC50 in test [1] stood at 26.6 nM; in test [2], 1260 nM.

With `CN(C)c1ccccc1CNC(=O)c1cccc(NCc2nnc(-c3ccncn3)n2C)c1`, the IC50 in test [1] was 14.8 nM; in test [2], 1610 nM.

Take `Cn1c(CNc2cccc(C(=O)NCc3cccc4c3OCO4)c2)nnc1-c1ccncn1`: the values for the IC50 in test [1] and in test [2] were 13.2 nM and 681 nM, respectively.

For `COc1nc(C)ccc1CNC(=O)c1cccc(NCc2nnc(-c3ccncn3)n2C)c1`, the IC50 in test [1] was 30.1 nM; in test [2], greater than 30000 nM.

In the case of `COc1cc(F)ccc1CNC(=O)c1cccc(NCc2nnc(-c3ccncn3)n2C)c1`, the IC50 amounted to 24.7 nM in test [1] and 28000 nM in test [2].

Take `Cn1c(CNc2cccc(C(=O)NC3CC(O)c4ccccc43)c2)nnc1-c1ccncn1` (stereo not shown): the IC50 was 65 nM in test [1] and greater than 30000 nM in test [2].

With `COc1ccc(C)nc1CNC(=O)c1cccc(NCc2nnc(-c3ccncn3)n2C)c1`, the IC50 in test [1] was 67.5 nM; in test [2], greater than 12400 nM.

With `Cn1c(CNc2cccc(C(=O)NCc3cncc4c3CCC4)c2)nnc1-c1ccncn1`, the IC50 was 15.3 nM in test [1] and greater than 11700 nM in test [2].

Take `Cn1c(CNc2cccc(C(=O)NCc3ccccc3OCCO)c2)nnc1-c1ccncn1`: the IC50 in test [1] is 48.9 nM; in test [2] it was greater than 6450 nM.

For `Cn1c(CNc2cccc(C(=O)N[C@H](CO)c3cc(F)ccc3F)c2)nnc1-c1ccncn1`, the IC50 in test [1] was 43.4 nM; in test [2], greater than 30000 nM.

Take `COc1ccccc1C(CO)NC(=O)c1cccc(NCc2nnc(-c3ccncn3)n2C)c1` (stereo not shown): the IC50 is 45.4 nM in test [1] and greater than 13000 nM in test [2].

Take `Cn1c(CNc2cccc(C(=O)NC(CO)c3ccc(F)cc3F)c2)nnc1-c1ccncn1` (stereo not shown): the IC50 in test [1] is 83.1 nM; in test [2], 3070 nM.

For `Cn1c(CNc2cccc(C(=O)NC(CCO)c3ccccc3F)c2)nnc1-c1ccncn1` (stereo not shown), the IC50 in test [1] amounted to 35.6 nM; in test [2], 536 nM.

For `Cn1c(CNc2cccc(C(=O)NCc3ccccc3S(C)(=O)=O)c2)nnc1-c1ccncn1`, the IC50 in test [1] worked out at 57.1 nM; in test [2], 1950 nM.
